Data on twelve molecules can be found in patent US20180171288A1, “METHODS OF TREATING CANCER” (THE UNIVERSITY OF ROCHESTER, priority 2016, published 2018).

For series [1], the system named is OPCs isolated from the developing human central nervous system. The series can be described thus: Sensitivity of human OPCs to anticancer agents. The class given is cell-based. The source says:
This is a particularly difficult problem to solve in the context of cells of the central nervous system, as many of these cells are inherently more sensitive to anticancer agents than are cancer cells themselves. Previous studies have shown that one of the cell types of the brain that is most sensitive to the adverse effects of multiple chemotherapeutic agents are the oligodendrocyte progenitor cells (OPCs) that give rise to the myelin-forming oligodendrocytes of the central nervous system.

In series [2] the test system is human TMXR MCF7 cells. The series can be described thus: TMXR MCF7 mammary fat pad xenograft in NSG mice. Conditions: mouse, in vivo.
In series [3] the test system is GBM cells. Description: Protein levels of direct and indirect c-Cbl targets in GBM cells. The class given is cell-based, human. As for the experimental part:
Alternatively, restoration of c-Cbl function can be determined by analysis of changes in the levels of direct targets of c-Cbl, with changes in the levels of two or more c-Cbl targets caused by the application of a single therapeutic intervention being an indicator of c-Cbl activation. In such analyses, cells are treated with saline, with the CRA or DCLTD by itself, with a pro-oxidant or with the combination of a CRA or a DCLTD with a pro-oxidant. The ability of treatment with the combined agents to cause greater decreases in the levels of proteins that are direct targets of c-Cbl provides a surrogate indicator of c-Cbl activation.
Six of the 10 compounds remaining were chosen to determine whether they restored the ability of oxidation of cells to cause decreases in levels of a c-Cbl target, an outcome that occurs when c-Cbl is activated via the redox/Fyn/c-Cbl pathway. These compounds indeed restored the ability of pro-oxidative stimulation to cause decreases in the levels of the epidermal growth factor receptor (EGFR), which is a c-Cbl target known to be important in growth of many cancer cells and that is of interest as a potential target in cancer treatment.
There are two groups of such proteins, ones in which the connection to a c-Cbl target can be reasonably surmised based on prior research and ones for which the linkage to c-Cbl is currently unknown. Non-limiting examples of the first category of outcomes are activities of Erk1/2 and Akt, which both are downstream of receptor tyrosine kinases that are targets of c-Cbl. Further non-limiting examples are activity levels of NF-κB and serum response element (SRE), which are activated downstream of Akt and […], respectively.

The subject of series [4] is complex between c-Cbl and Cool-1/βpix. Conditions: TMX-resistant luminal breast cancer cells.
Series [5] has as its system Cool-1/βpix. The series can be described thus: Cool-1/βpix Serine340 phosphorylation (antibody blot / immunostaining). Conditions: anti-phospho-Cool1/βpix antibody. The series is classed as cell-based, human.
The subject of series [6] is complex between c-Cbl and Cool-1/βpix. The series can be described thus: Complex between c-Cbl and Cool-1/βpix in GBM cells (immunoprecipitation, immunoblot). The class given is cell-based, human. Background: Immunoblotting shows a protein as a band on a membrane.
From the text: Lysates of treated and untreated cells were immuno-precipitated with anti-c-Cbl antibody followed by immunoblot analysis for Cool-1/βpix expression.
In series [7] the test system is TMXR MCF-7 cells. The series can be described thus: Growth and killing of TMXR MCF-7 cells in vitro. The series is classed as cell-based, human. The settings on record: for vulnerability / resistance of TMXR MCF-7 cells to 4^OH-CPP: 3 μM MPT, 5 μM TMX, 5 μM 4^OH-CPP.
The test system of series [8] is c-Cbl. Description: c-Cbl phosphorylation in GBM cells. The class given is cell-based, human. As for the experimental part:
In this approach, cancer cells are treated with a CRA or a DCLTD in the presence or absence of an agent that causes cells to become more oxidized. The status of c-Cbl phosphorylation may be analyzed by any of a number of means well-known to those skilled in the art, including Western blot analysis of cell lysates with an antibody that identifies phosphorylated c-Cbl, for instance at tyrosine residues Y731 or Y771, analysis of cell labeling with such antibodies which may be conjugated with a fluorescent probe that makes them suitable for analysis by fluorescence microscopy, immunohistochemistry or by automated fluorescence analysis of some form, or by CYTOF mass cytometry analysis. The change in phosphorylation status is compared with that seen in untreated cells, in cells treated with the CRA or DCLTD by itself, or that treated with a pro-oxidant by itself.
An example of the ability of DCLTDs to restore the ability of TMX to enhance phosphorylation of c-Cbl via the redox/Fyn/c-Cbl pathway is shown in FIG. 8. […] As predicted if activation was RFC pathway-mediated, such activation was inhibited by N-acetyl-L-cysteine (NAC, a glutathione pro-drug and anti-oxidant), thus confirming that TMX-induced activation of c-Cbl was dependent on the pro-oxidative activities of TMX.

Series [9] relates to GBM cells. Description: Sensitivity of GBM cells to TMX / cell killing. The series is classed as cell-based, human. The source says:
The cell lines studied represent a range of glioblastoma subtypes and genotypes and generate human glioblastomas when transplanted into the CNS of immune-deficient mice.

In series [10] the test system is tamoxifen-resistant luminal breast cancer cells.
The test system of series [11] is melanoma cells. The series can be described thus: Sensitivity of melanoma cells to TMX. The class given is cell-based.
The subject of series [12] is parental MCF-7 cells. The class given is cell-based, human.
In series [13] the test system is GBM TICs. Description: Tumor generation by GBM cells treated in vitro and transplanted intra-cranially in NSG mice. The class given is in vivo. Conditions: cells exposed 72 hrs in vitro, four GBM cell lines. From the text: After treatment, 500,000 live cells were transplanted intra-cranially in NSG mice. […] In contrast with the effects of MPT+TMX in TICs, treatment with temozolomide (TMZ, the frontline treatment for glioblastoma), had no apparent effects on TICs (FIG. 12D).
Unexpectedly, in light of the partial reduction in levels of Cool-1/βpix, and the similarly partial reduction in levels of proteins important in TIC biology, treatment with DCLTD-based therapies eliminates TICs. […] After treatment, 500,000 live cells were transplanted intra-cranially in NSG mice. […] Thus, treatment with temozolomide had little apparent effect on TIC elimination, in agreement with patient data indicating rapid recurrence of tumor even during the period of temozolomide treatment.
Exposure of GBM cells to the combination of MPT+TMX led to the apparently complete elimination of GBM cancer stem cells. GBM cells from four different cell lines were exposed to MPT+TMX combination for 72 hrs in vitro, after which 500,000 live cells were transplanted intra-cranially in NSG mice.

For series [14], the system named is hGBM10. The series can be described thus: Intracranial xenograft, hGBM10. The class given is in vivo, NSG mice.
Series [15] concerns human GBM cells. The series can be described thus: Established intracranial human GBM xenografts in NSG mice (cohorts together). (In general: A xenograft is tissue or cells of one species grown in another, often human tumour cells in immunodeficient mice.)
The subject of series [16] is hGBM27. The series can be described thus: Intracranial xenograft, hGBM27. The series is classed as in vivo, NSG mice.
In series [17] the test system is MDA-MB-231 cells. The series can be described thus: Sensitivity of MDA-MB-231 BLBC cells to TMX. The class given is cell-based. The source says: Sertraline and mefloquine both were identified in screens on MDA-MB-231 BLBC cells, in which c-Cbl is inhibited in a Cdc42-dependent manner.
The test system of series [18] is tumor growth. Conditions: in combination with TMX; cited from earlier work.

Values joined by “and” are separate entries in the source; they are usually repeats but may differ in a detail not shown here. Identical values can stand only once. “Also recorded” adds a separate entry of the source. Like-named read-outs stand apart in the source and are kept apart here. Some results are limits rather than exact numbers.

As to `OCCNC1CCCc2c1[nH]c1ccc(-c3ccccc3)cc21` (stereo not shown) [CASIN], the “sensitivity of OPCs to TMX” value in [1] is “does not increase the vulnerability of OPCs to TMX”.

With `O=P1(N(CCCl)CCCl)NCCCO1` (stereo not shown) [CPP, cyclophosphamide], in [2], the tumor growth entry is reported as “already have initiated tumor growth midway through treatment”.

With `CNCCCC12CCC(c3ccccc31)c1ccccc12` [MPT, maprotiline], in series [3], the “levels of Cool-1/βpix” value was “decreases levels of the inhibitory protein Cool-1/βpix”; the “levels of the c-Cbl targets EGFR, Notch-1, β-catenin and PDGFRα” value was “decreases were less marked”. In addition, the “levels of the complex between c-Cbl and Cool-1/βpix” value in [4] was “causes a decrease in levels of the complex”. For the same molecule, the “Cool-1/βpix phosphorylation on Serine340” value in series [5] was “decreases the level of staining; also recorded: causes a decrease in levels of Cool-1/βpix phosphorylation”. Moreover, in series [1], the “sensitivity of OPCs to TMX” value was “did not increase the sensitivity” and the “sensitivity of OPCs to temozolomide” value is listed as “does not increase the sensitivity of OPCs to temozolomide”. The “levels of the complex between c-Cbl and Cool-1/βpix” value in [6] is given as “virtually complete elimination of complexes; also recorded: marked reductions in levels of the complex”. In addition, the “vulnerability / resistance of TMXR MCF-7 cells to 4^OH-CPP” value in series [7] is “only slightly increased vulnerability to 4^OH-CPP”. The c-Cbl phosphorylation result in [8] is given as “enabled TMX-induced c-Cbl phosphorylation”. Besides, in series [9], the “sensitivity of GBM cells to TMX” value was “enhanced the sensitivity of GBM cells; also recorded: increase in tamoxifen sensitivity”. For the same molecule, in series [10], the “tamoxifen sensitivity of tamoxifen-resistant luminal breast cancer cells” value was “increase in tamoxifen sensitivity”. For the same molecule, in series [11], the “sensitivity of melanoma cells to TMX” value was “increased the sensitivity of melanoma cells to TMX”.

Regarding `CC/C(=C(\c1ccccc1)c1ccc(OCCN(C)C)cc1)c1ccccc1` [TMX, tamoxifen], the “levels of FoxM1, Sox2, HSF-1 and HSP70” value in series [3] is “does not have the above effects”. Besides, the “cell division in the presence of TMX” value in series [7] (1 μM TMX, TMXR cells) was “continue to divide”. In addition, the “vulnerability / resistance of TMXR MCF-7 cells to 4^OH-CPP” value in [7] was “only slightly increased vulnerability to 4^OH-CPP”. In addition, in series [8], the c-Cbl phosphorylation entry was “alone was not sufficient to activate c-Cbl”. Moreover, the “effect on cell division and survival” value in [12] is “cytostatic but not lethal”. Moreover, the “tumor generation after transplant of 500,000 live treated cells” value in series [13] is recorded as “generated tumors within three weeks”.

As to `Cn1nnc2c(C(N)=O)ncn2c1=O` [TMZ, temozolomide], in series [14] (hGBM10), the “increase in tumor size at 12 weeks” value is > 500 fold and 500 fold. The median survival in series [14] (hGBM10 cohort) was 12 weeks; in series [16] (hGBM27 cohort) it was 11.5 weeks. Moreover, the “increase in lifespan over saline-treated mice” value in series [15] (median 9 week survival of saline-treated mice) was 30%. In addition, the “time lived after treatment was stopped” value in series [15] (mouse, in vivo) was 4-5 weeks and 2-6 weeks. Besides, the “week of treatment in which tumor size began to increase” value in [16] (hGBM27) turned out to be 4 week. Further, in series [16] (hGBM27, 3 weeks after cessation of treatment), the “increase in tumor size (photon flux) at 12 weeks” value was > 5000 fold. The “increase in tumor size (photon flux) at the end of 9 weeks of treatment” value in series [16] (hGBM27, oral gavage 5 days on/2 days off) is > 100 fold.

For `CN(C)CCC=C1c2ccccc2CCc2ccccc21` [amitryptiline], the “sensitivity of GBM cells to TMX” value in series [9] is “none of them were as effective as MPT”.

With `CNCCC(Oc1ccc(C(F)(F)F)cc1)c1ccccc1` (stereo not shown) [fluoxetine], the “sensitivity of GBM cells to TMX” value in [9] is “none of them were as effective as MPT”.

As for `Cc1cccc(CN2CCN(C(c3ccccc3)c3ccc(Cl)cc3)CC2)c1` (stereo not shown) [meclizine], in series [9], the “sensitivity of GBM cells to TMX” value is “increased the vulnerabilty of GBM cells to TMX”.

`OC(c1cc(C(F)(F)F)nc2c(C(F)(F)F)cccc12)C1CCCCN1` (stereo not shown) [mefloquine]: the “sensitivity of melanoma cells to TMX” value in series [11] is recorded as “increased the sensitivity of melanoma cells to TMX”.

For the molecule `CN[C@H]1CC[C@@H](c2ccc(Cl)c(Cl)c2)c2ccccc21` [sertraline], the “sensitivity of OPCs to TMX” value in [1] is recorded as “does not increase sensitivity of OPCs to TMX”. For the same molecule, the “sensitivity of MDA-MB-231 BLBC cells to TMX” value in series [17] was “increased the sensitivity of these cells to TMX; also recorded: increase in tamoxifen sensitivity”.

Turning to `C=C(NC(=O)C(=C)NC(=O)c1csc(C2=N[C@@H]3c4csc(n4)[C@H]4NC(=O)c5csc(n5)[C@H]([C@](C)(O)[C@@H](C)O)NC(=O)[C@H]5CSC(=N5)/C(=C/C)NC(=O)[C@H]([C@@H](C)O)NC(=O)c5csc(n5)[C@]3(CC2)NC(=O)[C@H](C)NC(=O)C(=C)NC(=O)[C@H](C)NC(=O)[C@H]([C@@H](C)CC)N[C@@H]2C=Cc3c([C@H](C)O)cc(nc3[C@H]2O)C(=O)O[C@@H]4C)n1)C(N)=O` [thiostrepton], in series [8], the c-Cbl phosphorylation result was “not associated with a notable increase in c-Cbl phosphorylation”. The “sensitivity of GBM cells to TMX” value in series [9] is recorded as “does not increase sensitivity to TMX as potently as does MPT”.

For ML141, the “suppression of tumor growth” value in [18] is recorded as “only provided partial suppression of tumor growth”.
